From patent publication US20150105252A1, “SUBSTITUTED PYRAZOLES AS HERBICIDES” (E I DU PONT DE NEMOURS AND COMPANY, priority 2013, published 2015)

What was measured:
[1] = tested on: foxtail, giant; test: Test A preemergence; type: in vivo, Setaria faberii; details: for Foxtail, Giant plant response rating (0 to 100 scale): visual injury approx. 10 days after treatment
How it was run: (§1)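 Both timings tested concurrently in loam/sand soil: preemergence by directed soil spray, postemergence on plants of 2–10 cm at the one- to two-leaf stage. Greenhouse holding period was approximately 10 days before visual injury assessment (0–100, 0 = no effect).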

[2] = tested on: morningglory; test: Test A preemergence; type: in vivo, Ipomoea spp.; details: for Morningglory plant response rating (0 to 100 scale): visual injury approx. 10 days after treatment
How it was run: as §1

[3] = tested on: barnyardgrass; test: Test A postemergence; type: in vivo, Echinochloa crus-galli
How it was run: as §1

[4] = tested on: crabgrass, large; test: Test A preemergence; type: in vivo, Digitaria sanguinalis; details: for Crabgrass, Large plant response rating (0 to 100 scale): visual injury approx. 10 days after treatment
How it was run: as §1

[5] = tested on: crabgrass, large; test: Test A postemergence; type: in vivo, Digitaria sanguinalis
How it was run: as §1

[6] = tested on: barnyardgrass; test: Test B flood; type: in vivo, Echinochloa crus-galli; details: 250 g ai/ha, visual rating on 0 to 100 scale (0 no effect, 100 complete control), 13 to 15 days
How it was run: (§2)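 Each compound is applied to the floodwater of pots holding 2-leaf seedlings, water standing 3 cm over the soil throughout. Plants stay in a greenhouse 13 to 15 days before visual scoring against controls from 0 (no effect) to 100 (complete control).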

[7] = tested on: velvetleaf; test: Test A preemergence; type: in vivo, Abutilon theophrasti; details: for Velvetleaf plant response rating (0 to 100 scale): visual injury approx. 10 days after treatment
How it was run: as §1

[8] = tested on: morningglory; test: Test A postemergence; type: in vivo, Ipomoea spp.
How it was run: as §1

[9] = tested on: sedge, umbrella; test: Test B flood; type: in vivo, Cyperus difformis; details: 250 g ai/ha, visual rating on 0 to 100 scale (0 no effect, 100 complete control), 13 to 15 days
How it was run: as §2

[10] = tested on: ducksalad; test: Test B flood; type: in vivo, Heteranthera limosa; details: 250 g ai/ha, visual rating on 0 to 100 scale (0 no effect, 100 complete control), 13 to 15 days
How it was run: as §2

[11] = tested on: barnyardgrass; test: Test A preemergence; type: in vivo, Echinochloa crus-galli; details: for Barnyardgrass plant response rating (0 to 100 scale, 0 is no effect, 100 is complete control): visual injury approx. 10 days after treatment
How it was run: as §1

[12] = tested on: wheat; test: Test A preemergence; type: in vivo, Triticum aestivum; details: preemergence; for Wheat plant response rating (0 to 100 scale): visual injury approx. 10 days after treatment
How it was run: as §1

[13] = tested on: corn; test: Test A postemergence; type: in vivo, Zea mays
How it was run: as §1

[14] = tested on: corn; test: Test A preemergence; type: in vivo, Zea mays; details: for Corn plant response rating (0 to 100 scale): visual injury approx. 10 days after treatment
How it was run: as §1

[15] = tested on: velvetleaf; test: Test A postemergence; type: in vivo, Abutilon theophrasti
How it was run: as §1

[16] = tested on: pigweed; test: Test A postemergence; type: in vivo, Amaranthus retroflexus
How it was run: as §1

[17] = tested on: pigweed; test: Test A preemergence; type: in vivo, Amaranthus retroflexus; details: for Pigweed plant response rating (0 to 100 scale): visual injury approx. 10 days after treatment
How it was run: as §1

[18] = tested on: rice; test: Test B flood; type: in vivo, Oryza sativa; details: 250 g ai/ha, visual rating on 0 to 100 scale (0 no effect, 100 complete control), 13 to 15 days
How it was run: as §2

[19] = tested on: foxtail, giant; test: Test A postemergence; type: in vivo, Setaria faberii
How it was run: as §1

[20] = tested on: wheat; test: Test A postemergence; type: in vivo, Triticum aestivum
How it was run: as §1

[21] = preemergence, 500 g ai/ha, visual injury after approx. 10 days, 0 to 100 scale (0 no effect, 100 complete control)
[22] = Postemergence, 500 g ai/ha, 0 to 100 scale (0 no effect, 100 complete control)
[23] = postemergence, 125 g ai/ha, about 10 days, visual rating on 0 to 100 scale (0 no effect, 100 complete control)
[24] = preemergence, 125 g ai/ha, visual injury, 0 to 100 scale, approx. 10 days
[25] = 500 g ai/ha, visual injury after approx. 10 days, 0 to 100 scale (0 no effect, 100 complete control)
[26] = Preemergence, 500 g ai/ha, 0 to 100 scale, 0 no effect, 100 complete control
[27] = Postemergence, 125 g ai/ha, 0 to 100 scale, 0 no effect, 100 complete control
[28] = Postemergence, 500 g ai/ha, visual rating after approx. 10 days, 0 to 100 scale (0 no effect, 100 complete control)

CCc1cc(C(=O)NC2CC2)nn1Cc1nnc(C(F)(F)F)o1 [Compound 172]
Foxtail, Giant plant response rating (0 to 100 scale) ([1]; preemergence, 125 g ai/ha): 20
Foxtail, Giant plant response rating [1, 21]: 50
Morningglory plant response rating (0 to 100 scale) ([2]; preemergence, 125 g ai/ha): 30
Morningglory plant response rating [2, 21]: 40
Barnyardgrass plant response rating [3, 22]: 10
Barnyardgrass plant response rating [3, 23]: 0
Crabgrass, Large plant response rating (0 to 100 scale) ([4]; preemergence, 125 g ai/ha): 50
Crabgrass, Large plant response rating [4, 21]: 90
Crabgrass, Large plant response rating [5, 22]: 20
Crabgrass, Large plant response rating [5, 23]: 10
Plant response rating, Barnyardgrass [6]: 0
Velvetleaf plant response rating (0 to 100 scale) ([7]; preemergence, 125 g ai/ha): 10
Velvetleaf plant response rating [7, 21]: 20
Morningglory plant response rating [8, 22]: 70
Morningglory plant response rating [8, 23]: 30
Plant response rating, Sedge, Umbrella [9]: 0
Plant response rating, Ducksalad [10]: 0
Barnyardgrass plant response rating [11, 24]: 0
Barnyardgrass plant response rating [11, 21]: 50
Wheat plant response rating (0 to 100 scale) ([12]; 125 g ai/ha): 0
Wheat plant response rating [12, 25]: 0
Corn plant response rating [13, 22]: 10
Corn plant response rating [13, 23]: 0
Corn plant response rating (0 to 100 scale) ([14]; preemergence, 125 g ai/ha): 0
Corn plant response rating [14, 21]: 10
Velvetleaf plant response rating [15, 22]: 20
Velvetleaf plant response rating [15, 23]: 10
Pigweed plant response rating [16, 22]: 80
Pigweed plant response rating [16, 23]: 30
Pigweed plant response rating (0 to 100 scale) ([17]; preemergence, 125 g ai/ha): 80
Pigweed plant response rating [17, 21]: 100
Plant response rating, Rice [18]: 0
Foxtail, Giant plant response rating [19, 22]: 10
Foxtail, Giant plant response rating [19, 23]: 0
Wheat plant response rating [20, 22]: 0
Wheat plant response rating [20, 23]: 0

Cc1cc(C(=O)NC2CC2)nn1Oc1ccnc(C(F)(F)F)c1 [Compound 81]
Foxtail, Giant plant response rating [1, 26]: 100
Foxtail, Giant plant response rating [1, 24]: 30
Morningglory plant response rating [2, 26]: 60
Morningglory plant response rating [2, 24]: 0
Barnyardgrass plant response rating [3, 27]: 0
Barnyardgrass plant response rating [3, 28]: 20
Crabgrass, Large plant response rating [4, 26]: 100
Crabgrass, Large plant response rating [4, 24]: 60
Crabgrass, Large plant response rating [5, 28]: 40
Crabgrass, Large plant response rating [5, 23]: 10
Plant response rating, Barnyardgrass [6]: 0
Velvetleaf plant response rating [7, 26]: 60
Velvetleaf plant response rating [7, 24]: 0
Morningglory plant response rating [8, 28]: 50
Morningglory plant response rating [8, 23]: 30
Plant response rating, Sedge, Umbrella [9]: 0
Plant response rating, Ducksalad [10]: 0
Barnyardgrass plant response rating [11, 26]: 70
Barnyardgrass plant response rating [11, 24]: 20
Wheat plant response rating ([12]; 125 g ai/ha, visual injury, 0 to 100 scale, approx. 10 days): 0
Wheat plant response rating [12, 25]: 10
Corn plant response rating [13, 28]: 20
Corn plant response rating [13, 23]: 10
Corn plant response rating [14, 26]: 0
Corn plant response rating [14, 24]: 0
Velvetleaf plant response rating [15, 28]: 30
Velvetleaf plant response rating [15, 23]: 20
Pigweed plant response rating [16, 28]: 50
Pigweed plant response rating [16, 23]: 30
Pigweed plant response rating [17, 26]: 90
Pigweed plant response rating [17, 24]: 40
Plant response rating, Rice [18]: 0
Foxtail, Giant plant response rating [19, 28]: 30
Foxtail, Giant plant response rating [19, 23]: 10
Wheat plant response rating [20, 28]: 0
Wheat plant response rating [20, 23]: 0

CCc1cc(C(=O)NCC(F)(F)F)nn1Oc1cccc(C(F)(F)F)c1 [Compound 217]
Foxtail, Giant plant response rating (0 to 100 scale) ([1]; preemergence, 125 g ai/ha): 0
Foxtail, Giant plant response rating [1, 21]: 40
Morningglory plant response rating (0 to 100 scale) ([2]; preemergence, 125 g ai/ha): 0
Barnyardgrass plant response rating [3, 27]: 0
Barnyardgrass plant response rating [3, 22]: 20
Crabgrass, Large plant response rating (0 to 100 scale) ([4]; preemergence, 125 g ai/ha): 50
Crabgrass, Large plant response rating [4, 21]: 90
Crabgrass, Large plant response rating [5, 27]: 20
Crabgrass, Large plant response rating [5, 22]: 70
Plant response rating, Barnyardgrass [6]: 0
Velvetleaf plant response rating (0 to 100 scale) ([7]; preemergence, 125 g ai/ha): 0
Morningglory plant response rating [8, 27]: 20
Morningglory plant response rating [8, 22]: 70
Plant response rating, Sedge, Umbrella [9]: 0
Plant response rating, Ducksalad [10]: 0
Barnyardgrass plant response rating (0 to 100 scale, 0 is no effect, 100 is complete control) ([11]; preemergence, 125 g ai/ha): 0
Barnyardgrass plant response rating [11, 21]: 20
Wheat plant response rating (0 to 100 scale) ([12]; 125 g ai/ha): 0
Corn plant response rating [13, 27]: 0
Corn plant response rating [13, 22]: 20
Corn plant response rating (0 to 100 scale) ([14]; preemergence, 125 g ai/ha): 0
Corn plant response rating [14, 21]: 0
Velvetleaf plant response rating [15, 27]: 0
Velvetleaf plant response rating [15, 22]: 30
Pigweed plant response rating [16, 27]: 20
Pigweed plant response rating [16, 22]: 70
Pigweed plant response rating (0 to 100 scale) ([17]; preemergence, 125 g ai/ha): 20
Plant response rating, Rice [18]: 0
Foxtail, Giant plant response rating [19, 27]: 0
Foxtail, Giant plant response rating [19, 22]: 30
Wheat plant response rating [20, 27]: 0
Wheat plant response rating [20, 22]: 0

CCCNC(=O)c1cc(CC)n(Oc2cccc(OC(F)(F)F)c2)n1 [Compound 219]
Foxtail, Giant plant response rating (0 to 100 scale) ([1]; preemergence, 125 g ai/ha): 0
Foxtail, Giant plant response rating [1, 21]: 20
Morningglory plant response rating (0 to 100 scale) ([2]; preemergence, 125 g ai/ha): 0
Barnyardgrass plant response rating [3, 27]: 10
Barnyardgrass plant response rating [3, 22]: 40
Crabgrass, Large plant response rating (0 to 100 scale) ([4]; preemergence, 125 g ai/ha): 40
Crabgrass, Large plant response rating [4, 21]: 90
Crabgrass, Large plant response rating [5, 27]: 20
Crabgrass, Large plant response rating [5, 22]: 70
Plant response rating, Barnyardgrass [6]: 0
Velvetleaf plant response rating (0 to 100 scale) ([7]; preemergence, 125 g ai/ha): 0
Morningglory plant response rating [8, 27]: 10
Morningglory plant response rating [8, 22]: 70
Plant response rating, Sedge, Umbrella [9]: 75
Plant response rating, Ducksalad [10]: 30
Barnyardgrass plant response rating (0 to 100 scale, 0 is no effect, 100 is complete control) ([11]; preemergence, 125 g ai/ha): 0
Barnyardgrass plant response rating [11, 21]: 20
Wheat plant response rating (0 to 100 scale) ([12]; 125 g ai/ha): 0
Corn plant response rating [13, 27]: 10
Corn plant response rating [13, 22]: 20
Corn plant response rating (0 to 100 scale) ([14]; preemergence, 125 g ai/ha): 0
Corn plant response rating [14, 21]: 0
Velvetleaf plant response rating [15, 27]: 0
Velvetleaf plant response rating [15, 22]: 90
Pigweed plant response rating [16, 27]: 20
Pigweed plant response rating [16, 22]: 60
Pigweed plant response rating (0 to 100 scale) ([17]; preemergence, 125 g ai/ha): 0
Plant response rating, Rice [18]: 0
Foxtail, Giant plant response rating [19, 27]: 20
Foxtail, Giant plant response rating [19, 22]: 60
Wheat plant response rating [20, 27]: 0
Wheat plant response rating [20, 22]: 10
